Patent EP4707277A1, “NOVEL HETEROCYCLIC AMINE DERIVATIVES AND PHARMACEUTICAL COMPOSITION COMPRISING SAME” (Daewoong Pharmaceutical Co., Ltd., priority 2023, dated 2024)
Read-outs that look alike come from different tables or passages of the source.

Experiments:
BTK = biological target: T1, BTK (Homo sapiens, UniProt Q06187); test: Inhibitory activity against BTK, ADP-Glo Kinase system (Promega); type: biochemical
T1 construct: purchased Signalchem B10-10H
Summary of the method: (§1)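 IC50 values were fitted from kinase reactions run for 1 h at 30°C with either 1 mM ATP or ATP at Km (10 µM for BTK, 25 µM for ITK). Reactions used 0.2 µg/µl poly(Glu4,Tyr1), recombinant human enzyme (BTK 10 ng, ITK 4 ng per reaction) in Tris pH 7.5 Mn/Mg buffer with 1% DMSO. ADP formed was read by ADP-Glo luminescence.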

ITK = biological target: T2, ITK (Homo sapiens, UniProt Q08881); test: Inhibitory activity against ITK, ADP-Glo Kinase system (Promega); type: biochemical
T2 construct: purchased Signalchem I13-11G-10
T2 sequence (Q08881 1-620): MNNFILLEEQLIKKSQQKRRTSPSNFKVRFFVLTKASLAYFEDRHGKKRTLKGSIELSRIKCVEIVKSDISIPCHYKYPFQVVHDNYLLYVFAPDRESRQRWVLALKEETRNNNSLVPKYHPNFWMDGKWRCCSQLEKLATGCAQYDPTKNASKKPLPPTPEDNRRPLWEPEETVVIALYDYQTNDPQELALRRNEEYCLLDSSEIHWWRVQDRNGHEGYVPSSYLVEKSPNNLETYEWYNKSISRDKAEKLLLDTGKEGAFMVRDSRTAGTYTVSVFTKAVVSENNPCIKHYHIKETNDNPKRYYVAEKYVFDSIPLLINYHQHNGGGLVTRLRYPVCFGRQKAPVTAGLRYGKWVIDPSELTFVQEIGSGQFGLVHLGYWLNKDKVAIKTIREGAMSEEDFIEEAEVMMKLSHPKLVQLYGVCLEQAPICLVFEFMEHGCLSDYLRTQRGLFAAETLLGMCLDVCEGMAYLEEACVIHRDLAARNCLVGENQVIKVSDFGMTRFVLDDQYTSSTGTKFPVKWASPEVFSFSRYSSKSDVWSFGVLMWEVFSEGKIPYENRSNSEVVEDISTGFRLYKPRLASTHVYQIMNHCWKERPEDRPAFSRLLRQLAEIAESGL
Summary of the method: as §1

[1] = 1mM ATP, read-out: BTK IC50(nM) 1mM ATP
[2] = 1mM ATP, read-out: ITK IC50(nM) 1mM ATP
[3] = Km ATP (BTK: 10 uM), read-out: BTK IC50(nM) Km ATP
[4] = Km ATP (ITK: 25uM), read-out: ITK IC50(nM) Km ATP

T1 sequence (Q06187 whole entry): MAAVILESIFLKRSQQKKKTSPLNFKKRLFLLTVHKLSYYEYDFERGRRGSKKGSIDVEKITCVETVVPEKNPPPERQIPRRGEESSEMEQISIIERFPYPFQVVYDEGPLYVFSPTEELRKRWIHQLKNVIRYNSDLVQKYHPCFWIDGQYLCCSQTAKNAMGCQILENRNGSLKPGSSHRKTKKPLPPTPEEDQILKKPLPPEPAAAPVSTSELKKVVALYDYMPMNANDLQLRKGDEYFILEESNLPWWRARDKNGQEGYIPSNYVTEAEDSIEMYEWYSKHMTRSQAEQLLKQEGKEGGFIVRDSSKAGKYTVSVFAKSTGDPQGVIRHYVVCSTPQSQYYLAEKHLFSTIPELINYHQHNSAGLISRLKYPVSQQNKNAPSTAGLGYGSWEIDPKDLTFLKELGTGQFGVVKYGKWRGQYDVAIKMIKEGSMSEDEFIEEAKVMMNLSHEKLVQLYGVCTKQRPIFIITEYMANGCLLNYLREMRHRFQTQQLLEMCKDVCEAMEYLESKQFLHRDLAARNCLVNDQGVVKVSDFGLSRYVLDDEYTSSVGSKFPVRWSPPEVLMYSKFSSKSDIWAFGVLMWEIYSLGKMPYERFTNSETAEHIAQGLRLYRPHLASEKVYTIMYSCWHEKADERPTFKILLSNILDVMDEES

IC50 (BTK; [1]) [nM]	IC50 (ITK; [2]) [nM]	IC50 (BTK; [3]) [nM]	IC50 (ITK; [4]) [nM]	SMILES
≤ 20	20 to 100			C=CC(=O)Nc1cccc(-c2nc(Nc3ncc(C)s3)cc3c2ccn3CC(C)C)c1C [Example 62, N-(3-(1-isobutyl-6-((5-methylthiazol-2-yl)amino)-1H-pyrrolo[3,2-c]pyridin-4-yl)-2-methylphenyl)acrylamide]
20 to 100	100 to 500	≤ 20	20 to 100	C=CC(=O)Nc1ccc(F)c(-c2nc(Nc3ncc(C)s3)cc3c2ccn3CC(C)C)c1 [Example 63, N-(4-fluoro-3-(1-isobutyl-6-((5-methylthiazol-2-yl)amino)-1H-pyrrolo[3,2-c]pyridin-4-yl)phenyl)acrylamide]
		≤ 20	≤ 20	C=CC(=O)Nc1cc(-c2nc(Nc3ncc(C)s3)cc3c2ccn3CC2CC2)ccc1F [Example 64, N-(5-(1-(cyclopropylmethyl)-6-((5-methylthiazol-2-yl)amino)-1H-pyrrolo[3,2-c]pyridin-4-yl)-2-fluorophenyl)acrylamide]
		≤ 20	20 to 100	C=CC(=O)Nc1cc(-c2nc(Nc3ncc(C)s3)cc3c2ccn3CC2CC2)ccc1C [Example 65, N-(5-(1-(cyclopropylmethyl)-6-((5-methylthiazol-2-yl)amino)-1H-pyrrolo[3,2-c]pyridin-4-yl)-2-methylphenyl)acrylamide]
≤ 20	20 to 100	≤ 20	≤ 20	C=CC(=O)Nc1cc(-c2nc(Nc3ncc(C)s3)cc3c2ccn3CC2CC2)c(F)cc1F [Example 66, N-(5-(1-(cyclopropylmethyl)-6-((5-methylthiazol-2-yl)amino)-1H-pyrrolo[3,2-c]pyridin-4-yl)-2,4-difluorophenyl)acrylamide]
≤ 20	20 to 100	≤ 20	≤ 20	C=CC(=O)Nc1cc(-c2nc(Nc3ncc(C)s3)cc3c2ccn3CC(C)C)c(F)cc1F [Example 67, N-(2,4-difluoro-5-(1-isobutyl-6-((5-methylthiazol-2-yl)amino)-1H-pyrrolo[3,2-c]pyridin-4-yl)phenyl)acrylamide]
≤ 20	20 to 100			C=CC(=O)Nc1ccc(F)c(-c2nc(Nc3ncc(C)s3)cc3c2ccn3[C@@H](C)CC)c1 [Example 68, (S)-N-(3-(1-(sec-butyl)-6-((5-methylthiazol-2-yl)amino)-1H-pyrrolo[3,2-c]pyridin-4-yl)-4-fluorophenyl)acrylamide]
100 to 500	20 to 100			C=CC(=O)Nc1cc(-c2nc(Nc3ncc(C)s3)cc3c2ccn3CCC(C)(C)C)c(F)cc1F [Example 69, N-(5-(1-(3,3-dimethylbutyl)-6-((5-methylthiazol-2-yl)amino)-1H-pyrrolo[3,2-c]pyridin-4-yl)-2,4-difluorophenyl)acrylamide]
≤ 20	20 to 100			C=CC(=O)Nc1ccc(F)c(-c2nc(Nc3ncc(C)s3)cc3c2ccn3C2CCCC2)c1 [Example 70, N-(3-(1-cyclopentyl-6-((5-methylthiazol-2-yl)amino)-1H-pyrrolo[3,2-c]pyridin-4-yl)-4-fluorophenyl)acrylamide]
		≤ 20	≤ 20	C=CC(=O)Nc1ccc(F)c(-c2nc(Nc3ncc(C)s3)cc3c2ccn3CC2CCOC2)c1 (centres unmarked) [Example 71, N-(4-fluoro-3-(6-((5-methylthiazol-2-yl)amino)-1-((tetrahydrofuran-3-yl)methyl)-1H-pyrrolo[3,2-c]pyridin-4-yl)phenyl)acrylamide]
		≤ 20	≤ 20	C=CC(=O)Nc1cc(-c2nc(Nc3ncc(C)s3)cc3c2ccn3CC2CCOC2)ccc1F (centres unmarked) [Example 72, N-(2-fluoro-5-(6-((5-methylthiazol-2-yl)amino)-1-((tetrahydrofuran-3-yl)methyl)-1H-pyrrolo[3,2-c]pyridin-4-yl)phenyl)acrylamide]
		≤ 20	≤ 20	C=CC(=O)Nc1cccc(-c2nc(Nc3ncc(C)s3)cc3c2ccn3CC2CCOCC2)c1F [Example 73, N-(2-fluoro-3-(6-((5-methylthiazol-2-yl)amino)-1-((tetrahydro-2H-pyran-4-yl)methyl)-1H-pyrrolo[3,2-c]pyridin-4-yl)phenyl)acrylamide]
		≤ 20	≤ 20	C=CC(=O)Nc1cc(-c2nc(Nc3ncc(C)s3)cc3c2ccn3CC(F)F)ccc1C [Example 74, N-(5-(1-(2,2-difluoroethyl)-6-((5-methylthiazol-2-yl)amino)-1H-pyrrolo[3,2-c]pyridin-4-yl)-2-methylphenyl)acrylamide]
20 to 100	100 to 500	≤ 20	≤ 20	C=CC(=O)Nc1ccc(F)c(-c2nc(Nc3ncc(C)s3)cc3c2ccn3CC(F)F)c1 [Example 75, N-(3-(1-(2,2-difluoroethyl)-6-((5-methylthiazol-2-yl)amino)-1H-pyrrolo[3,2-c]pyridin-4-yl)-4-fluorophenyl)acrylamide]
		≤ 20	20 to 100	C=CC(=O)Nc1cc(-c2nc(Nc3ncc(C)s3)cc3c2ccn3CC(F)F)ccc1F [Example 76, N-(5-(1-(2,2-difluoroethyl)-6-((5-methylthiazol-2-yl)amino)-1H-pyrrolo[3,2-c]pyridin-4-yl)-2-fluorophenyl)acrylamide]
≤ 20	20 to 100			C=CC(=O)Nc1cc(-c2nc(Nc3ncc(C)s3)cc3c2ccn3CC(F)(F)F)c(F)cc1F [Example 77, N-(2,4-difluoro-5-(6-((5-methylthiazol-2-yl)amino)-1-(2,2,2-trifluoroethyl)-1H-pyrrolo[3,2-c]pyridin-4-yl)phenyl)acrylamide]
≤ 20	20 to 100			C=CC(=O)Nc1ccc(F)c(-c2nc(Nc3ncc(C)s3)cc3c2ccn3CC(F)(F)F)c1 [Example 78, N-(4-fluoro-3-(6-((5-methylthiazol-2-yl)amino)-1-(2,2,2-trifluoroethyl)-1H-pyrrolo[3,2-c]pyridin-4-yl)phenyl)acrylamide]
≤ 20	≤ 20	≤ 20	≤ 20	C=CC(=O)N1CC[C@H](Oc2nc(Nc3ncc(C)s3)cc3c2ccn3C(C)C)C1 [Example 79, (S)-1-(3-((1-isopropyl-6-((5-methylthiazol-2-yl)amino)-1H-pyrrolo[3,2-c]pyridin-4-yl)oxy)pyrrolidin-1-yl)prop-2-en-1-one]
≤ 20	≤ 20	≤ 20	≤ 20	C=CC(=O)N1CC(Oc2nc(Nc3ncc(C)s3)cc3c2ccn3C(C)C)C1 [Example 80, 1-(3-((1-isopropyl-6-((5-methylthiazol-2-yl)amino)-1H-pyrrolo[3,2-c]pyridin-4-yl)oxy)azetidin-1-yl)prop-2-en-1-one]
≤ 20	≤ 20			C=CC(=O)N1CC[C@H](Oc2nc(Nc3ncc(C)s3)cc3c2ccn3CC(C)C)C1 [Example 81, (S)-1-(3-((1-isobutyl-6-((5-methylthiazol-2-yl)amino)-1H-pyrrolo[3,2-c]pyridin-4-yl)oxy)pyrrolidin-1-yl)prop-2-en-1-one]
≤ 20	≤ 20			C=CC(=O)N1C[C@H](F)[C@H](Oc2nc(Nc3ncc(C)s3)cc3c2ccn3C(C)C)C1 [Example 83, 1-((3S,4R)-3-fluoro-4-((1-isopropyl-6-((5-methylthiazol-2-yl)amino)-1H-pyrrolo[3,2-c]pyridin-4-yl)oxy)pyrrolidin-1-yl)prop-2-en-1-one]
≤ 20	20 to 100			C=CC(=O)N1CCC[C@H](Oc2nc(Nc3ncc(C)s3)cc3c2ccn3C(C)C)C1 [Example 84, (S)-1-(3-((1-isopropyl-6-((5-methylthiazol-2-yl)amino)-1H-pyrrolo[3,2-c]pyridin-4-yl)oxy)piperidin-1-yl)prop-2-en-1-one]
20 to 100	> 500			C=CC(=O)N1CCC[C@H]1COc1nc(Nc2ncc(C)s2)cc2c1ccn2CC(C)C [Example 85, (S)-1-(2-(((1-isobutyl-6-((5-methylthiazol-2-yl)amino)-1H-pyrrolo[3,2-c]pyridin-4-yl)oxy)methyl)pyrrolidin-1-yl)prop-2-en-1-one]
≤ 20	20 to 100			C=CC(=O)N1CC[C@H]1COc1nc(Nc2ncc(C)s2)cc2c1ccn2C(C)C [Example 86, (S)-1-(2-(((1-isopropyl-6-((5-methylthiazol-2-yl)amino)-1H-pyrrolo[3,2-c]pyridin-4-yl)oxy)methyl)azetidin-1-yl)prop-2-en-1-one]
≤ 20	≤ 20			C=CC(=O)N1C[C@@H](Oc2nc(Nc3ncc(C)s3)cc3c2ccn3C(C)C)C[C@H]1C [Example 87, 1-((2R,4S)-4-((1-isopropyl-6-((5-methylthiazol-2-yl)amino)-1H-pyrrolo[3,2-c]pyridin-4-yl)oxy)-2-methylpyrrolidin-1-yl)prop-2-en-1-one]
